In PubChem BioAssay AID256 (DTP/NCI, 2004):
“And” between values parts separate entries of the source, which are not always exact repeats. Identical values can stand only once. Inconclusive results and toxic doses are left out.

System: CD2F1 mice, L1210 leukemia ip, survival T/C
Experiment: NCI In Vivo Anticancer Drug Screen. Data for tumor model L1210 Leukemia (intraperitoneal) in CD2F1 (CDF1) mice
Conditions: higher = longer survival
Summary of the method: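 Ratio T/C, where T is the treated-group value and C the vehicle-dosed control value, from mice implanted with a transplantable tumor.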

O=c1n(CC2CO2)c(=O)n(CC2CO2)c(=O)n1CC1CO1 (stereo unspecified)
T/C (endpoint: mean survival time, dose: 6.25 mg/kg/injection, schedule: Q01DX009 (ip), vehicle: suspension in saline): 206 % of control and 123 % of control
T/C (endpoint: mean survival time, dose: 12.5 mg/kg/injection, schedule: Q01DX009 (ip), vehicle: saline with Tween-80): 166 % of control and 157 % of control
T/C (endpoint: mean survival time, dose: 12.5 mg/kg/injection, schedule: Q01DX009 (ip), vehicle: suspension in saline): 162 % of control
T/C (endpoint: mean survival time, dose: 20.0 mg/kg/injection, schedule: Q01DX009 (ip), vehicle: saline): 178 % of control
T/C (endpoint: mean survival time, dose: 25.0 mg/kg/injection, schedule: Q01DX009 (ip), vehicle: saline with Tween-80): 291 % of control
T/C (endpoint: mean survival time, dose: 25.0 mg/kg/injection, schedule: Q01DX009 (ip), vehicle: saline): 151 % of control and 177 % of control and 158 % of control
T/C (endpoint: mean survival time, dose: 25.0 mg/kg/injection, schedule: Q01DX009 (ip), vehicle: suspension in saline): 276 % of control and 152 % of control
T/C (endpoint: mean survival time, dose: 25.0 mg/kg/injection, schedule: Q04DX003 (ip), vehicle: saline): 182 % of control
T/C (endpoint: mean survival time, dose: 25.0 mg/kg/injection, schedule: Q04DX005 (ip), vehicle: saline): 165 % of control
T/C (endpoint: mean survival time, dose: 30.0 mg/kg/injection, schedule: Q01DX009 (ip), vehicle: saline): 164 % of control
T/C (endpoint: mean survival time, dose: 30.0 mg/kg/injection, schedule: Q01DX010 (ip), vehicle: saline): 166 % of control
T/C (endpoint: mean survival time, dose: 40.0 mg/kg/injection, schedule: Q01DX009 (ip), vehicle: saline): 300 % of control and 109 % of control
T/C (endpoint: mean survival time, dose: 40.0 mg/kg/injection, schedule: Q01DX010 (ip), vehicle: saline): 195 % of control
T/C (endpoint: mean survival time, dose: 50.0 mg/kg/injection, schedule: Q01DX001 (ip), vehicle: saline): 160 % of control and 205 % of control
T/C (endpoint: mean survival time, dose: 50.0 mg/kg/injection, schedule: Q01DX009 (ip), vehicle: saline with Tween-80): 170 % of control
T/C (endpoint: mean survival time, dose: 50.0 mg/kg/injection, schedule: Q01DX009 (ip), vehicle: saline): 151 % of control
T/C (endpoint: mean survival time, dose: 50.0 mg/kg/injection, schedule: Q01DX009 (ip), vehicle: suspension in saline): 94 % of control
T/C (endpoint: mean survival time, dose: 50.0 mg/kg/injection, schedule: Q01DX010 (ip), vehicle: saline): 219 % of control
T/C (endpoint: mean survival time, dose: 50.0 mg/kg/injection, schedule: Q04DX003 (ip), vehicle: saline): 187 % of control
T/C (endpoint: mean survival time, dose: 50.0 mg/kg/injection, schedule: Q04DX005 (ip), vehicle: saline): 259 % of control and 340 % of control
T/C (endpoint: mean survival time, dose: 60.0 mg/kg/injection, schedule: Q01DX001 (ip), vehicle: saline): 168 % of control and 202 % of control
T/C (endpoint: mean survival time, dose: 60.0 mg/kg/injection, schedule: Q01DX009 (ip), vehicle: saline): 467 % of control
T/C (endpoint: mean survival time, dose: 70.0 mg/kg/injection, schedule: Q01DX001 (ip), vehicle: saline): 291 % of control
T/C (endpoint: mean survival time, dose: 75.0 mg/kg/injection, schedule: Q01DX009 (ip), vehicle: saline): 91 % of control
T/C (endpoint: mean survival time, dose: 75.0 mg/kg/injection, schedule: Q04DX003 (ip), vehicle: saline): 154 % of control
T/C (endpoint: mean survival time, dose: 75.0 mg/kg/injection, schedule: Q04DX005 (ip), vehicle: saline): 208 % of control and 581 % of control
T/C (endpoint: mean survival time, dose: 80.0 mg/kg/injection, schedule: Q01DX001 (ip), vehicle: saline): 202 % of control and 351 % of control
T/C (endpoint: mean survival time, dose: 80.0 mg/kg/injection, schedule: Q01DX009 (ip), vehicle: saline): 104 % of control
T/C (endpoint: median survival time, dose: 5.0 mg/kg/injection, schedule: Q03HX024 (ip), vehicle: saline): 167 % of control
T/C (endpoint: median survival time, dose: 10.0 mg/kg/injection, schedule: Q03HX008 (ip), vehicle: saline): 167 % of control
T/C (endpoint: median survival time, dose: 10.0 mg/kg/injection, schedule: Q03HX016 (ip), vehicle: saline): 176 % of control
T/C (endpoint: median survival time, dose: 10.0 mg/kg/injection, schedule: Q03HX024 (ip), vehicle: saline): 212 % of control
T/C (endpoint: median survival time, dose: 12.5 mg/kg/injection, schedule: Q01DX001 (ip), vehicle: saline): 121 % of control
T/C (endpoint: median survival time, dose: 12.5 mg/kg/injection, schedule: Q01DX001 (iv), vehicle: saline): 101 % of control
T/C (endpoint: median survival time, dose: 12.5 mg/kg/injection, schedule: Q01DX005 (ip), vehicle: saline): 150 % of control
T/C (endpoint: median survival time, dose: 12.5 mg/kg/injection, schedule: Q01DX005 (iv), vehicle: saline): 113 % of control
T/C (endpoint: median survival time, dose: 12.5 mg/kg/injection, schedule: Q01DX009 (oral), vehicle: saline): 105 % of control
T/C (endpoint: median survival time, dose: 20.0 mg/kg/injection, schedule: Q01DX009 (ip), vehicle: saline): 175 % of control
T/C (endpoint: median survival time, dose: 20.0 mg/kg/injection, schedule: Q03HX008 (ip), vehicle: saline): 637 % of control
T/C (endpoint: median survival time, dose: 20.0 mg/kg/injection, schedule: Q03HX016 (ip), vehicle: saline): 172 % of control
T/C (endpoint: median survival time, dose: 20.0 mg/kg/injection, schedule: Q03HX024 (ip), vehicle: saline): 116 % of control
T/C (endpoint: median survival time, dose: 25.0 mg/kg/injection, schedule: Q01DX001 (iv), vehicle: saline): 107 % of control
T/C (endpoint: median survival time, dose: 25.0 mg/kg/injection, schedule: Q01DX005 (ip), vehicle: saline): 380 % of control
T/C (endpoint: median survival time, dose: 25.0 mg/kg/injection, schedule: Q01DX009 (oral), vehicle: saline): 110 % of control
T/C (endpoint: median survival time, dose: 25.0 mg/kg/injection, schedule: Q04DX003 (ip), vehicle: saline): 167 % of control
T/C (endpoint: median survival time, dose: 40.0 mg/kg/injection, schedule: Q01DX005 (ip), vehicle: saline): 216 % of control
T/C (endpoint: median survival time, dose: 40.0 mg/kg/injection, schedule: Q01DX009 (ip), vehicle: saline): 253 % of control and 750 % of control
T/C (endpoint: median survival time, dose: 40.0 mg/kg/injection, schedule: Q03HX016 (ip), vehicle: saline): 160 % of control
T/C (endpoint: median survival time, dose: 50.0 mg/kg/injection, schedule: Q01DX001 (ip), vehicle: saline): 160 % of control and 166 % of control
T/C (endpoint: median survival time, dose: 50.0 mg/kg/injection, schedule: Q01DX005 (ip), vehicle: saline): 750 % of control
T/C (endpoint: median survival time, dose: 50.0 mg/kg/injection, schedule: Q01DX009 (ip), vehicle: saline): 750 % of control
T/C (endpoint: median survival time, dose: 50.0 mg/kg/injection, schedule: Q04DX003 (ip), vehicle: saline): 253 % of control
T/C (endpoint: median survival time, dose: 50.0 mg/kg/injection, schedule: Q04DX003 (oral), vehicle: saline): 116 % of control
T/C (endpoint: median survival time, dose: 50.0 mg/kg/injection, schedule: Q08DX002 (ip), vehicle: saline): 187 % of control
T/C (endpoint: median survival time, dose: 60.0 mg/kg/injection, schedule: Q01DX005 (ip), vehicle: saline): 275 % of control
T/C (endpoint: median survival time, dose: 60.0 mg/kg/injection, schedule: Q01DX009 (ip), vehicle: saline): 178 % of control
T/C (endpoint: median survival time, dose: 70.0 mg/kg/injection, schedule: Q01DX005 (ip), vehicle: saline): 110 % of control
T/C (endpoint: median survival time, dose: 100.0 mg/kg/injection, schedule: Q01DX001 (iv), vehicle: saline): 100 % of control
T/C (endpoint: median survival time, dose: 100.0 mg/kg/injection, schedule: Q01DX001 (oral), vehicle: saline): 123 % of control
T/C (endpoint: median survival time, dose: 100.0 mg/kg/injection, schedule: Q08DX002 (ip), vehicle: saline): 122 % of control
T/C (endpoint: median survival time, dose: 150.0 mg/kg/injection, schedule: Q01DX005 (oral), vehicle: saline): 116 % of control
T/C (endpoint: median survival time, dose: 200.0 mg/kg/injection, schedule: Q01DX009 (oral), vehicle: saline): 151 % of control
T/C (endpoint: median survival time, dose: 200.0 mg/kg/injection, schedule: Q04DX003 (oral), vehicle: saline): 191 % of control
T/C (endpoint: median survival time, dose: 200.0 mg/kg/injection, schedule: Q08DX002 (oral), vehicle: saline): 163 % of control
T/C (endpoint: median survival time, dose: 250.0 mg/kg/injection, schedule: Q01DX009 (oral), vehicle: saline): 151 % of control
T/C (endpoint: median survival time, dose: 250.0 mg/kg/injection, schedule: Q08DX002 (ip), vehicle: saline): 160 % of control
T/C (endpoint: median survival time, dose: 300.0 mg/kg/injection, schedule: Q04DX003 (oral), vehicle: saline): 221 % of control and 122 % of control
T/C (endpoint: median survival time, dose: 300.0 mg/kg/injection, schedule: Q08DX002 (oral), vehicle: saline): 185 % of control
T/C (endpoint: median survival time, dose: 350.0 mg/kg/injection, schedule: Q01DX001 (ip), vehicle: saline): 151 % of control
T/C (endpoint: median survival time, dose: 350.0 mg/kg/injection, schedule: Q04DX003 (oral), vehicle: saline): 122 % of control
T/C (endpoint: median survival time, dose: 350.0 mg/kg/injection, schedule: Q08DX002 (oral), vehicle: saline): 119 % of control
T/C (endpoint: median survival time, dose: 400.0 mg/kg/injection, schedule: Q04DX003 (oral), vehicle: saline): 120 % of control
T/C (endpoint: median survival time, dose: 450.0 mg/kg/injection, schedule: Q01DX001 (ip), vehicle: saline): 160 % of control
T/C (endpoint: median survival time, dose: 450.0 mg/kg/injection, schedule: Q04DX003 (oral), vehicle: saline): 118 % of control
T/C (endpoint: median survival time, dose: 450.0 mg/kg/injection, schedule: Q08DX002 (oral), vehicle: saline): 118 % of control
T/C (endpoint: median survival time, dose: 500.0 mg/kg/injection, schedule: Q08DX002 (oral), vehicle: saline): 123 % of control
